Laboratory results: patent US9125930B2, “EGFR aptamer inhibitor for use in therapy and diagnosis” (CONSIGLIO NAZIONALE DELLE RICERCHE, priority 2010, dated 2015)

Experiments:
[1] = target: T1, soluble extracellular domain of human EGFR (EC-EGFR) (Homo sapiens, UniProt P00533); assay: Filter binding on soluble extracellular domain of EGFR
T1 construct: purchased R&D Systems
Description: Binding experiments were performed with 5′-[^32P]-labeled RNA. For labeling 2′-F-Py RNAs were 5′-end dephosphorylated using bacterial alcaline phosphatase (Invitrogen, Carlsbad, Calif.) before [^32P]-5′-end-labeled using T4 kinase (Invitrogen) and γ-[^32P]-ATP (6×10^3 Ci/mmol, GE Healthcare Bio-Sciences, Uppsala, Sweden) according to the supplier's instructions.
The aptamers ability to bind EGFR or ErbB3 soluble extracellular domain (EC-EGFR and EC-ErbB3) was investigated by filter binding by plotting the fraction of RNA bound to the nitrocellulose filter as a function of protein concentration, using the following equation:
[formula] where Bmax is the extrapolated maximal amount of RNA:protein complex that will be bound. 1 nM of radiolabelled aptamers (CL4 42-81 aptamer or the scrambled sequence) were incubated with 1, 3.2, 10, 32, 100, 320 and 1000 nM of EC-EGFR and EC-ErbB3 (all from R&D Systems, Minneapolis, Minn.) for 15 min at 37° in phosphate-buffered saline (PBS) supplemented with 0.01% bovine serum albumin.
In order to test the binding for dimeric and monomeric proteins, 1 nM of radiolabelled aptamers (CL4 42-81 or scrambled) were incubated with 20 nM of EC-EGFR and EC-ErbB3 without or with 5 mM DTT.
After incubation, the aptamer-protein mix was passed through nitrocellulose membrane filter (Millipore Co., Bedford, Mass.) and filters were counted. […]

A549 cells [2] = assay: Cell viability assay, A549 cells; assay type: cell-based, human
Description: Cell viability was assessed with CellTiter 96® AQueous One Solution Cell Proliferation Assay (Promega, Madison, Wis.) according to according to the supplier's instructions. […] The optical density (OD) was measured using a Multilabel Counter (Bio-Rad) at a wavelength of 490 nm and cell viability was calculated by the following formula: Cell viability (%)=(OD treated cells/OD control cells)×100%. FACS Analysis

Calu1 = assay: Cell viability assay, Calu1 cells; assay type: cell-based, human; settings: 200 nM-final concentration; not shown
Description: Cell viability was assessed with CellTiter 96® AQueous One Solution Cell Proliferation Assay (Promega, Madison, Wis.) according to according to the supplier's instructions. Cells (4×10^3 cells/well) were plated in 96-well plates in triplicate. and were treated for 24 hs with heat denatured CL4 42-81 or the scrambled aptamer at 3 μM concentration. RNA concentrations were determined to ensure the continuous presence of a concentration of at least 200 nM, which takes into account the 6 hs-half life of the aptamer in 10% serum. The optical density (OD) was measured using a Multilabel Counter (Bio-Rad) at a wavelength of 490 nm and cell viability was calculated by the following formula: Cell viability (%)=(OD treated cells/OD control cells)×100%. FACS Analysis

A549 cells [3] = assay: Apoptosis assay by PI staining and FACS; assay type: cell-based, human; design: dose or concentration left out as unconfirmed
Description: For apoptosis assay, DNA content analysis was performed by staining with propidium iodide (PI) and analyzing cells by flow cytometry (FACS).
[…] Cells were incubated with 2 μg/ml propidium iodide (PI, Sigma, St. Louis, Mo.) for 30 min at 4° C. and recovered. The relative proportion of cells with DNA content indicative of apoptosis (ipoploid) was determined by FACS.

caspase-3 = assay: Caspase-3 activity assay in A549 cells; assay type: cell-based, human; settings: A549, 200 nM, 6 hs
Description: A549 cells were treated with 200 nM CL4 42-81 or the scrambled aptamer for 6 hs. To determine caspase activity cell lysates (50 μg) were incubated at 37° C. for 1 h with 50 μM of a specific fluorometric substrate (Ac-DEVD-AFC for caspase-3, Ac-IETD-AFC for caspase-8, both from Alexis Bichemicals, San Diego, Calif.). Cleavage of the fluorometric substrate were determined using a Fluorometer, with excitation at 400 nm and emission at 505 nm wavelengths.

A549 cells [4] = assay: [3H]-thymidine incorporation assay; assay type: cell-based, human; settings: A549, 200 nM final concentration, 24 and 48 h
Description: A549 cells were treated for 24 h or 48 h with CL4 42-81 or CL4 scrambled. During the final 6 h, cells were pulsed with 1 μCi/ml [^3H]-thymidine (45 Ci/mmol) (Amersham-Pharmacia Biosciences) added in complete growth medium and incubated at 37° C. At the end of each pulse, cells were harvested and [^3H]-thymidine incorporation was analyzed by a Beckman LS 1701 Liquid Scintillation Counter.

EGFR = EGFR (Homo sapiens, UniProt P00533); assay: Immunoblot of EGF-dependent EGFR phosphorylation in A549 cells; assay type: cell-based; design: endogenous in cells; host or cells: A549; settings: 200 nM aptamer, following 5 min of EGFR stimulation
Description: […] The aptamers were subjected to a short denaturation-renaturation step (85° C. for 5 min, snap-cooled on ice for 2 min, and allowed to warm up to 37° C.) before each treatment. To prepare cell extracts, cells were washed twice in ice-cold PBS, and lysed in buffer A (50 mM Tris-HCl pH 8.0 buffer containing 150 mM NaCl, 1% Nonidet P-40, 2 mg/ml aprotinin, 1 mg/ml pepstatin, 2 mg/ml leupeptin, 1 mM Na3VO4). Protein concentration was determined by the Bradford assay using bovine serum albumin as the standard. The cell lysates were subjected to SDS-PAGE. Gels were electroblotted into polyvinylidene difluoride membranes (Millipore Co., Bedford, Mass.), and filters were probed with the indicated primary antibodies: anti-EGFR and anti-phospho-EGFR (Tyr1062), anti-phospho-44/42 MAP kinase (E10) (also indicated as p-Erk), anti-phospho-Akt, anti-Akt and anti-phospho-STAT3 (Tyr705), anti-ErbB2 (all from Cell Signaling, Beverly, Mass., United States); anti-Erk1, anti-EGFR, anti-ErbB3, anti-ErbB4 (C-16) (Santa Cruz Biotechnology, California, United States); anti-α-αtubulin (DM 1A) (Sigma, St. Louis, Mo.).
Proteins were visualized with peroxidase-conjugated secondary antibodies using the enhanced chemiluminescence system (GE Healthcare Bio-Sciences, Uppsala, Sweden). […]

Substance: CL4 42-81: 2′-fluoropyrimidine nuclease-resistant RNA aptamer of 39 nt: 5′ GCCUUAGUAACGUGCUUUGAUGUCGAUUCGACAGGAGGC 3′ (SEQ ID No. 1) (2'-fluoro at CU, RNA at AG, backbone not given here)
- Kd [1]: 0.01 µM
- sensitivity of A549 cell viability (A549 cells [2]; 200 nM-final concentration, 24 h): highly sensitive
- cell viability (A549 cells [2]; A549, 24 hs, 200 nM final concentration, relative to untreated cells set to 100%): about 60%
- effectiveness on A549 cell viability in combination with gefitinib (A549 cells [2]; CL4 42-81 100 and 200 nM with 1 μM gefitinib, 24 h): not improved
- sensitivity of Calu1 cell viability (Calu1): same effect
- percentage of apoptotic cells (sub-G1 peak) (A549 cells [3]; A549, 24 hs): about 30%
- percentage of apoptotic cells (sub-G1 peak) (A549 cells [3]; A549, 48 hs): 40%
- activation of caspase-3 (caspase-3): strongly induce activation
- [3H]-thymidine incorporation (A549 cells [4]): completely blocks
- inhibition of EGF-dependent phosphorylation of EGFR (EGFR): 60%
